Legend:
[1] = target: T1, jack-bean urease (Canavalia ensiformis, UniProt P07374); test: biochemical
T1 construct: purchased Sigma Aldrich
Method: The assay mixture, containing 50 μL (2 mg/mL) of jack-bean urease (purchased from Sigma Aldrich) and 100 μL of different concentration of test compounds, which were previously dissolved in ethanol 20%, was added to 850 μL of 25 mM urea and pre-incubated for 0.5 h in a water bath at 37 °C. The urease reaction was stopped after 30 min incubation by following procedure.
Urease activity was determined by measuring ammonia production using the indophenol method, as described by Weatherburn. After pre-incubation, 500 μL of phenol reagent (1% w/v phenol and 0.005% w/v sodium nitroprusside) and 500 μL of alkali reagent (1% w/v NaOH and 0.075% active chloride NaOCl) were added to 100 μL of incubation mixture and kept at 37 °C for 30 min. The absorbance was measured at 625 nm. All experiments were performed in triplicate in a final volume of 1 mL, and thiourea was used as a standard urease inhibitor.
Percentage inhibitions were calculated using the formula:(100 − (OD sample/OD control) × 100)
The IC50 values were then calculated using GraphPad Prism 5 software.

[2] = target: α-glucosidase from Saccharomyces cerevisiae; test: α-Glucosidase inhibition assay (chromogenic method, p-nitrophenyl-α-D-glucopyranoside); type: biochemical; settings: pH 6.9, 37 °C; read-out: α Glucosidase Inhibition (IC50 ± S.E.M)
Method: α-glucosidase from Saccharomyces cerevisiae was purchased from Sigma Aldrich. […] The test samples were prepared (200 µg/mL) in DMSO and 10 μL of each sample was added to 20 μL of α-glucosidase solution (prepared in 120 μL of 0.1 M phosphate buffer, pH 6.9) in a 96-well plate format and incubated for 15 min at 37 °C. After incubation, 20 μL p-nitrophenyl-α-D-glucopyranoside (5 mM) solution was added to this mixture and incubated for a further 15 min. Finally, 80 µL of Na2CO3 solution (0.2 M) was added to this solution to stop the reaction and the absorbance was measured at 410 nm with SpectraMax microplate reader, M2. […] The α-glucosidase inhibition (%) was calculated with the help of the following formula:Inhibition (%) = (Absorbance of Control − Absorbance of Sample)/(Absorbance of Control) × 100
The IC50 values of the active samples were calculated using regression equation by plotting % inhibition at various concentrations.

T1 sequence (P07374 whole entry, looked up): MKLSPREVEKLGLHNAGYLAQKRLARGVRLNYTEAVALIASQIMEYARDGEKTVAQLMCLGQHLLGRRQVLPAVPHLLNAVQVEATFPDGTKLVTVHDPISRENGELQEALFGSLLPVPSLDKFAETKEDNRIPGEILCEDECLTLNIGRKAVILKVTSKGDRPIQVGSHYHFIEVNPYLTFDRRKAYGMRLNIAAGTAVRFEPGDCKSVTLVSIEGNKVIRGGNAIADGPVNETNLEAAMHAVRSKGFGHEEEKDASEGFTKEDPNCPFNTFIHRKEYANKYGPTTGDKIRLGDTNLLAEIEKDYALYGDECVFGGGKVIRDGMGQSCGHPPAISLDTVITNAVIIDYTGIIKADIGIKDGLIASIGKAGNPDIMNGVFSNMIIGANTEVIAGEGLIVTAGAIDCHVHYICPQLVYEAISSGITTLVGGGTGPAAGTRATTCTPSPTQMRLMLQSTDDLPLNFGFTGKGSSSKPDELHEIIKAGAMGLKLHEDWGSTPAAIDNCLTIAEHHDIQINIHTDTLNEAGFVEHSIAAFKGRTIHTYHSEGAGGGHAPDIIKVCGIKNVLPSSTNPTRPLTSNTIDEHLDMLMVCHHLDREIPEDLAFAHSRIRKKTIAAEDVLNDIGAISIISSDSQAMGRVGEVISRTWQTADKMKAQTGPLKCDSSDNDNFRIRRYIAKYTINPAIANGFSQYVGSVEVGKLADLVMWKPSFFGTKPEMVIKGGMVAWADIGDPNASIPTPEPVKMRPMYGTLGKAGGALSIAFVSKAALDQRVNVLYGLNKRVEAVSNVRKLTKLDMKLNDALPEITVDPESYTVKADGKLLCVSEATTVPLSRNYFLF

Row | SMILES | IC50 [1] | IC50 [2]
1 | CCOC(=O)/C=C/[C@H]1C(C)=CC(=O)[C@H](OC)C1(C)C (relative stereo) [Compound 1, ethyl (E)-3-((1S,5R)-5-methoxy-2,6,6-trimethyl-4-oxocyclohex-2-en-1-yl)acrylate] | 16.87 ± 0.02 µM | 331.47 ± 0.04 µM
2 | COC(=O)/C=C/[C@H]1C(C)=CC(=O)[C@H](OC)C1(C)C (relative stereo) [Compound 2, methyl (E)-3-((1S,5R)-5-methoxy-2,6,6-trimethyl-4-oxocyclohex-2-en-1-yl)acrylate] | 13.71 ± 0.07 µM | 294.18 ± 0.07 µM
3 | CO[C@H]1C(=O)C=C(C)[C@H](/C=C/C(C)=O)C1(C)C (relative stereo) [Compound 3, (4S,6R)-6-methoxy-3,5,5-trimethyl-4-((E)-3-oxobut-1-en-1-yl)cyclohex-2-en-1-one] | 10.46 ± 0.03 µM | 310.68 ± 0.05 µM
